The target of one test is T1, human recombinant HDAC 2 (Homo sapiens, UniProt Q92769).
T1 construct: purchased BPS Bioscience 50002
The test can be described thus: HDAC inhibition assay (Fluor de Lys), HDAC2. Type of test: biochemical. The conditions noted are these: inhibitor-protein incubation 2 hours, reaction 1 h 30 min, 37° C. The procedure: All assays were carried out in the assay buffer: 50 mM Tris/Cl, pH 8.0, 137 mM NaCl, 2.7 mM KCl, 1 mM MgCl2).
Reactions were carried out in a 96-wells microplate (Corning 96 well Flat Bottom Non-binding surface (black) ref. 3651).
Potential inhibitors were added after five fold serial dilutions in DMSO. Final DMSO concentration in the assay microplate was kept at 2%.
Afterwards, human recombinant HDAC1, HDAC 2 or HDAC 8 were added up to […] respectively in assay buffer. When necessary, the mixture was incubated at room temperature prior the addition of substrate.
Total reaction volume of 50 μl. Human recombinant HDACs could be acquired from commercial sources (HDAC1: ref. #50001, BPS Bioscience™; HDAC 2: ref. #50002, BPS Bioscience™; HDAC 8: ref. #50008, BPS Bioscience™).
Reactions were stopped with 50 μl Developer (KI-105 Fluor de Lys™, BIOMOL®) with 2 μmol/L trichostatin A (TSA, final concentration 1 μmol/L). After 20 minutes at 37° C., fluorescence (excitation 360 nm, emission 460 nm) was measured using an Infinite F200 fluorimeter (Tecan). Background was determined in reactions using substrate in the absence of enzyme.
IC50 values are defined as the compound concentration at which the deacetylase activity is 50% inhibited. In these assays the following grading was used (I: IC50≦10 μM; II: 10 μM<IC50≦100 μM; III: 100 μM<IC50≦1 mM) The results obtained are summarized in Table 4.

In test [1] the test system is human colon cancer cell line HCT116. In words: alamarBlue viability assay, HCT116. To be noted: HCT-116, 72 hours, dose required to inhibit cell growth by 50%. Format: cell-based. The procedure: The human colon cancer cell line HCT116 and the human breast cancer cell line MCF-7 were from the American Type Culture Collection (ATCC; CCL-247 and HTB-22, respectively).
The HCT116 cell line was maintained in DMEM GlutaMAX (Invitrogen) supplemented with 10% fetal calf serum and the MCF7 cell line was maintained in RPMI1640 GlutaMAX (Invitrogen) containing 1 mM sodium piruvate and 10% fetal calf serum.
Cells were grown in a humidified incubator at 37° C. in 5% CO2.
Cells were plated in 96-well plates at a density of 6000 cells/well in 100 μl medium 24 h before addition of drugs. […] To do so, a drugs-dilution plate at twice the screening concentrations was prepared. 72 hours later, alamarBlue (Biosource, Invitrogen) viability assay was performed following manufacturer's protocol. In brief, alamarBlue diluted in media was added to cells to have a 5% solution. Cells were incubated at 37° C., 3 hours and at room temperature, 30 min. Cells with no drug and, cells with no drug and lysed with triton X-100 were used as controls. Fluorescence was monitored at 530 nm excitation and 590 nm emission wavelengths. Results were quantified using Infinite F200 Microplate Reader (Tecan Group, Ltd.). EC50 were calculated as the dose of drugs required to inhibit cell growth by 50%, with Origin 7.0 computer program.

T1 sequence (Q92769 whole entry): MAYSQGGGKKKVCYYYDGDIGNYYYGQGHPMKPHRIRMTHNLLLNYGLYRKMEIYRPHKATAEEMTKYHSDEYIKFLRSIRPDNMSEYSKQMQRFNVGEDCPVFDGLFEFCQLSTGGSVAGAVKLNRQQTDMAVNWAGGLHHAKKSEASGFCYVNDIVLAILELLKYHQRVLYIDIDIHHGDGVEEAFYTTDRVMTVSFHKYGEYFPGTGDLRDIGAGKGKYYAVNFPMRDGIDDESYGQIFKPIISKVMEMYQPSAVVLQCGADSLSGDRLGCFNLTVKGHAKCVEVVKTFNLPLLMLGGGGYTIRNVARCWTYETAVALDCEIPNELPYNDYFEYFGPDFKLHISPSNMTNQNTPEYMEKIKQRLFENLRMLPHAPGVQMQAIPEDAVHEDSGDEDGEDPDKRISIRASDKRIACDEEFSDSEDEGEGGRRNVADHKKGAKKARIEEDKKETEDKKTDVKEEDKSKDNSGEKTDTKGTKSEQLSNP

Consider `O=C(O)C(CCCc1ccccc1)CCC1CNc2ccccc21` (mixture of isomers) [Example 53, 2-[2-(2,3-Dihydro-1H-indol-3-yl)ethyl]-5-phenylpentanoic acid], for which the IC50 (usually the concentration that inhibits the measured activity by half) on human recombinant HDAC 2 is 10 to 100 µM. Regarding `O=C(O)C(CCCCc1ccccc1)CCc1ccccc1` (centres unmarked) [Example 14, 6-Phenyl-2-(2-phenylethyl)hexanoic acid], in test [1], the EC50 (as a rule, the concentration that produces a half-maximal response) came to 256 µM. Moreover, at human recombinant HDAC 2, the IC50 lay within 10 to 100 µM. `CC(=O)OCOC(=O)C(CCc1ccccc1)Cc1ccccc1` (centres unmarked) [Example 15, (Acetyloxy)methyl 2-benzyl-4-phenylbutanoate]: it took 85 µM to reach a half-maximal effect in test [1] (EC50). As for `CC(=O)OCOC(=O)C(CCCc1ccccc1)CCc1ccccc1` (centres unmarked) [Example 16, (Acetyloxy)methyl 5-phenyl-2-(2-phenylethyl)pentanoate], the concentration for a half-maximal effect (EC50) in test [1] came out at 267 µM. In test [1], `COc1ccc(NS(=O)(=O)c2cccc(CCCC(CCc3ccccc3)C(=O)OCOC(C)=O)c2)cc1OC` (centres unmarked) [Example 17, (Acetyloxy)methyl 5-(3-{[(3,4-dimethoxyphenyl)amino]sulfonyl}phenyl)-2-(2-phenylethyl)pentanoate] displayed an EC50 of 62 µM. Same read-out and setting: the figure for `CC(=O)OCOC(=O)C(CCCc1cccc(S(=O)(=O)Nc2ccc(C)cc2)c1)CCc1ccccc1` (centres unmarked) [Example 18] is 95 µM. In test [1], `Cc1ccc(S(=O)(=O)Nc2cccc(CCCC(CCc3ccccc3)C(=O)O)c2)cc1` (centres unmarked) [Example 25, 5-(3′-{[(4-Methylphenyl)sulfonyl]amino}phenyl)-2-(2-phenylethyl)pentanoic acid] displayed a concentration for a half-maximal effect (EC50) of 121 µM. Further, the IC50 at human recombinant HDAC 2 lay in the range of 10 to 100 µM. Take `Nc1ccc(CCC(CCCc2ccccc2)C(=O)O)cc1` (centres unmarked) [Example 32, 2-[2-(4-Aminophenyl)ethyl]-5-phenylpentanoic acid]: the IC50 on human recombinant HDAC 2 is 100 to 1000 µM. With `O=C(O)C(CCCc1ccccc1)CCc1ccc(NCc2ccccc2)cc1` (centres unmarked) [Example 33, 2-[2-(4-(Benzylamino)phenyl)ethyl]-5-phenylpentanoic acid], the midpoint of the response in test [1], the EC50, lay at 71.4 µM. Moreover, at human recombinant HDAC 2, the 50% inhibitory concentration (IC50) was 10 to 100 µM. Regarding `CNS(=O)(=O)c1cccc(CCCC(CCc2ccccc2)C(=O)OC)c1` (centres unmarked) [Example 42, Methyl 5-(3-[(methylamino)sulfonyl]phenyl)-2-(2-phenylethyl)pentanoate], in test [1], the EC50 worked out at 56 µM. `Cc1ccc(NS(=O)(=O)c2cccc(CCCC(CCCc3ccccc3)C(=O)O)c2)cc1` (centres unmarked) [Example 44, 5-[3-(4-methylanilinosulfonyl)phenyl]-2-(3-phenylpropyl)pentanoic acid] came in with a concentration for a half-maximal effect (EC50) in test [1] of 95 µM. The IC50 on human recombinant HDAC 2 fell in the range of 10 to 100 µM. Regarding `CCc1ccc(CCC(CCCc2ccc(S(=O)(=O)Nc3ccccc3)cc2)C(=O)OC)cc1` (centres unmarked) [Example 47, Methyl 5-[4-(anilinosulfonyl)phenyl]-2-[2-(4-ethylphenyl)ethyl]pentanoate], the EC50 in test [1] amounted to 23 µM. With `CCc1ccc(CCC(CCCCc2ccccc2)C(=O)O)cc1` (centres unmarked) [Example 48, 2-[2-(4-Ethylphenyl)ethyl]-6-phenylhexanoic acid], the midpoint of the response in test [1], the EC50, lay at 112 µM. Moreover, the IC50 on human recombinant HDAC 2 is 10 to 100 µM. With `CCc1ccc(CCC(CCCc2cccc3ccccc23)C(=O)O)cc1` (centres unmarked) [Example 50, 5-(1-Naphthyl)-2-[2-(4-ethylphenyl)ethyl]-pentanoic acid], the response in test [1] was half-maximal at 103 µM (EC50). Moreover, the IC50 on human recombinant HDAC 2 fell in the range of 100 to 1000 µM.

`O=C(O)C(CCCc1ccccc1)CCc1ccc(Br)cc1` (centres unmarked) [Example 52, 2-[2-(4-Bromophenyl)ethyl]-5-phenylpentanoic acid]: the EC50 in test [1] turned out to be 107 µM. In addition, at human recombinant HDAC 2, the 50% inhibitory concentration (IC50) lay in the range of 100 to 1000 µM. Take `O=C(O)C(CCCc1ccccc1)CCc1ccc(O)cc1` (centres unmarked) [Example 54, 2-[2-(4-hydroxyphenyl)ethyl]-5-phenylpentanoic acid]: the IC50 on human recombinant HDAC 2 lay within 100 to 1000 µM.

In the case of `CC(=O)OCOC(=O)C(CCCc1ccccc1)CCc1ccc(OCc2ccccc2)cc1` (centres unmarked) [Example 56, (Acetyloxy)methyl 2-[2-(4-benzyloxyphenyl)ethyl]-5-phenyl pentanoate], in test [1], it took 56 µM to reach a half-maximal effect (EC50). With `O=C(O)C(CCCc1ccccc1)CCc1ccc(OCc2ccccn2)cc1` (centres unmarked) [Example 58, 2-{2-[4-(Pyridin-2-ylmethoxy)phenyl]ethyl}-5-phenylpentanoic acid], in test [1], it took 160 µM to reach a half-maximal effect (EC50). The concentration for half-maximal inhibition (IC50) at human recombinant HDAC 2 lay within 10 to 100 µM. As to `O=C(O)C(CCCc1ccccc1)CCc1ccc(OCc2cccnc2)cc1` (centres unmarked) [Example 59, 2-{2-[4-(Pyridin-3-ylmethoxy)phenyl]ethyl}-5-phenyl pentanoic acid], the IC50 at human recombinant HDAC 2 was in the range of 10 to 100 µM. As for `O=C(O)C(CCCc1ccccc1)CCc1ccc(OCc2ccncc2)cc1` (centres unmarked) [Example 60, 2-{2-[4-(Pyridin-4-ylmethoxy)phenyl]ethyl}-5-phenylpentanoic acid], at human recombinant HDAC 2, the IC50 lay in the range of 100 to 1000 µM. In turn, `N#Cc1ccccc1Oc1ccc(CCC(CCCc2ccccc2)C(=O)O)cc1` (centres unmarked) [Example 61, 2-{2-[4-(2-Cyanophenoxy)phenyl]ethyl}-5-phenylpentanoic acid] registered an EC50 in test [1] of 70.7 µM. Moreover, the IC50 at human recombinant HDAC 2 was 10 to 100 µM. `N#Cc1cccc(Oc2ccc(CCC(CCCc3ccccc3)C(=O)O)cc2)c1` (centres unmarked) [Example 62, 2-{2-[4-(3-cyanophenoxy)phenyl]ethyl}-5-phenylpentanoic acid] had an EC50 in test [1] of 155 µM. Besides, the IC50 on human recombinant HDAC 2 fell in the range of 10 to 100 µM. In test [1], `N#Cc1ccc(Oc2ccc(CCC(CCCc3ccccc3)C(=O)O)cc2)cc1` (centres unmarked) [Example 63, 2-{2-[4-(4-cyanophenoxy)phenyl]ethyl}-5-phenylpentanoic acid] had a concentration giving a half-maximal response (EC50) of 88 µM. The concentration for half-maximal inhibition (IC50) at human recombinant HDAC 2 was in the range of 10 to 100 µM. On to `O=C(O)C(CCCc1ccccc1)CCc1ccc(Oc2ccc(F)cc2)cc1` (centres unmarked) [Example 64, 2-{2-[4-(4-Fluorophenoxy)phenyl]ethyl}-5-phenylpentanoic acid], for which the IC50 on human recombinant HDAC 2 lay within 100 to 1000 µM. `O=C(O)C(CCCc1ccccc1)CCc1ccc(Oc2ccccc2)cc1` (centres unmarked) [Example 65, 2-{2-[4-Phenoxyphenyl]ethyl}-5-phenylpentanoic acid]: the IC50 on human recombinant HDAC 2 lay within 100 to 1000 µM. Same read-out and setting: under `O=C(O)C(CCCc1ccccc1)CCc1ccc(Oc2ccc(C(F)(F)F)cc2)cc1` (centres unmarked) [Example 66, 2-{2-[4-(4-Trifluoromethylphenoxy)phenyl]ethyl}-5-phenyl pentanoic acid] stands 100 to 1000 µM. With `COc1ccc(Oc2ccc(CCC(CCCc3ccccc3)C(=O)O)cc2)cc1` (centres unmarked) [Example 67, 2-{2-[4-(4-Methoxyphenoxy)phenyl]ethyl}-5-phenylpentanoic acid], at human recombinant HDAC 2, the IC50 lay within 10 to 100 µM.

Turning to `O=C(O)C(CCc1ccccc1)SCCc1ccccc1` (centres unmarked) [Example 68, 4-Phenyl-2-[(2-phenylethyl)thio]butanoic acid], the half-inhibitory concentration (IC50) on human recombinant HDAC 2 fell in the range of 100 to 1000 µM. `O=C(O)C(CCCc1ccccc1)SCc1ccccc1` (centres unmarked) [Example 70, Sodium 2-(benzylthio)-5-phenylpentanoate]: in test [1], the EC50 came to 825 µM. At human recombinant HDAC 2, the IC50 lay within 100 to 1000 µM.

Compound `O=C(O)C(CCCc1ccccc1)CCc1ccc(-c2ccccc2)cc1` (centres unmarked) [Example 72, 2-[2-(1,1′-Biphenyl-4-yl)ethyl]-5-phenylpentanoic acid] yielded an EC50 in test [1] of 88.3 µM. Further, the IC50 on human recombinant HDAC 2 lay within 10 to 100 µM. For `O=C(O)C(CCCc1ccccc1)CCc1ccc(-c2ccco2)cc1` (centres unmarked) [Example 73, 2-{2-[4′-(2-Furyl)phenyl]ethyl}-5-phenylpentanoic acid], in that order: 48.6 µM and 100 to 1000 µM. The compound `O=C(O)C(CCCc1ccccc1)CCc1ccc(-c2ccoc2)cc1` (centres unmarked) [Example 74, 2-{2-[4′-(3-Furyl)phenyl]ethyl}-5-phenylpentanoic acid] returned an EC50 in test [1] of 94.5 µM. On human recombinant HDAC 2, the IC50 was 10 to 100 µM.

These data come from patent US20110105544A1, “CARBOXYLIC DERIVATIVES FOR USE IN THE TREATMENT OF CANCER” (priority 2007, published 2011).
